{"source": "patent US20250026723A1", "about": "“Cannabinoid Receptor Modulating Compounds” (THE UNITED STATES OF AMERICA, as represented by the …, priority 2021, published 2025)", "key": {"[1]": {"molecular_target": "cannabinoid receptor 1 (CB1R) (Homo sapiens (Human), UniProt P21554)", "assay": "CB1R binding affinity (inhibition constant Ki)"}, "Caco-2": {"test_system": "Caco-2", "assay": "Caco-2 permeability assay", "conditions": "Caco-2, assay conc 10 μM"}, "CB1 [2]": {"molecular_target": "T1, CB1 (Homo sapiens (Human), UniProt P21554)", "assay": "CB1 antagonism assay, green (β-Arrestin) NOMAD biosensor, MPXNomad-CB1 HEK293 cells", "type": "cell-based", "experimental": "(§1) CB1 antagonism assays were conducted on red (cAMP) and green ([…]) NOMAD biosensors using MPXNomad-CB1 HEK293 cells using commercial kits and protocols provided by Innoprot (Derio, Spain)."}, "in vitro": {"assay": "in vitro", "conditions": "human, Caco-2"}, "CB1 [3]": {"molecular_target": "T1, CB1", "assay": "CB1 antagonism assay, red (cAMP) NOMAD biosensor, MPXNomad-CB1 HEK293 cells", "type": "cell-based", "experimental": "as §1"}, "[4]": {"assay": "Caco-2 permeability assay", "conditions": "human, Caco-2"}, "CB1 [5]": {"molecular_target": "T1, CB1", "assay": "Cannabinoid receptor modulator activity (Table 3, in words)"}}, "note": "Like-named read-outs stand apart in the source and are kept apart here."}
{"smiles": "COCCSC(=NS(=O)(=O)c1ccc(C(F)(F)F)cc1)N1CC(c2ccccc2)C(c2ccc(Cl)cc2)=N1", "note": "(stereo not shown) [Compound 1]", "values": [{"measurement": "Ki", "setting": "[1]; read-out: CB1R Ki", "value": 6.9, "unit": "nM"}]}
{"smiles": "NC(=O)C[Se]C(=NS(=O)(=O)c1ccc(C(F)(F)F)cc1)N1CC(c2ccccc2)C(c2ccc(Cl)cc2)=N1", "note": "(stereo not shown) [Compound 20]", "values": [{"measurement": "Ki", "setting": "[1]; read-out: CB1R Ki", "value": 14.4, "unit": "nM"}, {"measurement": "Mean (B-A/A-B) Efflux Ratio", "setting": "Caco-2", "value": 0.25}, {"measurement": "Mean Papp A-B", "setting": "Caco-2", "value": "0.183 10^−6 cm/s"}, {"measurement": "Mean Papp B-A", "setting": "Caco-2", "value": "0.0451 10^−6 cm/s"}]}
{"smiles": "NC(=O)CSC(=NS(=O)(=O)c1ccc(C(F)(F)F)cc1)N1CC(c2ccccc2)C(c2ccc(Cl)cc2)=N1", "note": "(stereo not shown) [Compound 3]", "values": [{"measurement": "Ki", "setting": "[1]; read-out: CB1R Ki", "value": 21.2, "unit": "nM"}]}
{"smiles": "COC(=O)C(C)C[Se]C(=NS(=O)(=O)c1ccc(Cl)cc1)N1CC(c2ccccc2)C(c2ccc(Cl)cc2)=N1", "note": "(stereo not shown) [Compound 23]", "values": [{"measurement": "Ki", "setting": "[1]; read-out: CB1R Ki", "value": 12.1, "unit": "nM"}]}
{"smiles": "COC(=O)[C@@H](C)CS/C(=N\\S(=O)(=O)c1ccc(C(F)(F)F)cc1)N1CC(c2ccccc2)C(c2ccc(Cl)cc2)=N1", "note": "(stereo partly shown) [Compound 3A]", "values": [{"measurement": "IC50", "setting": "CB1 [2]", "value": 0.04, "unit": "nM"}, {"measurement": "Papp A→B at 10 μM", "setting": "in vitro", "value": 0.0096, "unit": "×10⁻⁶ cm/s"}, {"measurement": "Papp B→A at 10 μM", "setting": "in vitro", "value": 0.0121, "unit": "×10⁻⁶ cm/s"}, {"measurement": "IC50", "setting": "CB1 [3]", "value": 0.61, "unit": "nM"}, {"measurement": "Ki", "setting": "[1]", "value": 7.7, "unit": "nM"}, {"measurement": "efflux ratio at 10 μM", "setting": "[4]", "value": 1.26}]}
{"smiles": "CSC(=NS(=O)(=O)c1ccc(C(F)(F)F)cc1)N1CC(c2ccccc2)C(c2ccc(Cl)cc2)=N1", "note": "(stereo not shown) [Compound 19]", "values": [{"measurement": "Ki", "setting": "[1]; read-out: CB1R Ki", "value": 16.6, "unit": "nM"}]}
{"smiles": "C[Se]C(=NS(=O)(=O)c1ccc(C(F)(F)F)cc1)N1CC(c2ccccc2)C(c2ccc(Cl)cc2)=N1", "note": "(stereo not shown) [Compound 12]", "values": [{"measurement": "Ki", "setting": "[1]; read-out: CB1R Ki", "value": 3.3, "unit": "nM"}]}
{"smiles": "N#CCCCSC(=NS(=O)(=O)c1ccc(C(F)(F)F)cc1)N1CC(c2ccccc2)C(c2ccc(Cl)cc2)=N1", "note": "(stereo not shown) [Compound 2]", "values": [{"measurement": "IC50", "setting": "CB1 [2]; MPXNomad-CB1 HEK293 cells, CB1 antagonism, read-out: β-Arrestin IC50", "value": 1800, "unit": "nM"}, {"measurement": "IC50", "setting": "CB1 [3]; MPXNomad-CB1 HEK293 cells, CB1 antagonism, read-out: cAMP IC50", "value": 2490, "unit": "nM"}, {"measurement": "Ki", "setting": "[1]; read-out: CB1R Ki", "value": 3.4, "unit": "nM"}, {"measurement": "Mean (B-A/A-B) Efflux Ratio", "setting": "Caco-2", "value": 2.09}, {"measurement": "Mean Papp A-B", "setting": "Caco-2", "value": "0.00561 10^−6 cm/s"}, {"measurement": "Mean Papp B-A", "setting": "Caco-2", "value": "0.0118 10^−6 cm/s"}]}
{"smiles": "O=C(CCS/C(=N\\S(=O)(=O)c1ccc(C(F)(F)F)cc1)N1CC(c2ccccc2)C(c2ccc(Cl)cc2)=N1)NO", "note": "(stereo not shown) [Compound 3B]", "values": [{"measurement": "Activity at CB1 (in words)", "setting": "CB1 [5]", "value": "antagonist, potential"}]}
